Laboratory results: patent US12061201B2, “Fluorescent probes for the visualization of FtsZ in gram-positive and gram-negative bacterial pathogens” (Rutgers, The State University of New Jersey, priority 2019, dated 2024)
Like-named read-outs stand apart in the source and are kept apart here.

Assays:
[1] = molecular target: T1, FtsZ in P. aeruginosa ATCC 27853 cells (Pseudomonas aeruginosa, UniProt P47204); assay: Fluorescence microscopy FtsZ visualization in live cells; assay type: cell-based; conditions: 1 μg/mL BOFP for 5 minutes, no pentamidine
T1 construct: endogenous in cells; host or cells: P. aeruginosa ATCC 27853
T1 sequence (P47204 1-394): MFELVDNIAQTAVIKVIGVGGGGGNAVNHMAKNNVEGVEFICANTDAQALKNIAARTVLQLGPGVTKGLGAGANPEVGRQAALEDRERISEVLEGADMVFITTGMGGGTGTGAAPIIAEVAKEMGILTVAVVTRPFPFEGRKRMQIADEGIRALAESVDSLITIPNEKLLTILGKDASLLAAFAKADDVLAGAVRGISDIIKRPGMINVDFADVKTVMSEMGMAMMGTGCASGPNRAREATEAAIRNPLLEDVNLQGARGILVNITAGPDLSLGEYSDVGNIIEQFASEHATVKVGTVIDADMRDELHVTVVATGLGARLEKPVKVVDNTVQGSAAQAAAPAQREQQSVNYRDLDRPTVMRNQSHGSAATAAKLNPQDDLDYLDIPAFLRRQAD
Protocol: (§1) Fluorescence microscopy assay for visualizing FtsZ and monitoring cell division in live Gram-positive and Gram-negative bacterial cells using BOFP. All fluorescence microscopy experiments were conducted using an Olympus BX50 microscope equipped with an X-cite Exacte 200W mercury lamp, a 100× Olympus UPLSAPO oil immersion objective (1.40 aperture), and a Chroma ET-EGFP (FITC/Cy2) filter. Images were captured using a QImaging Retiga R3 charge-coupled device (CCD) camera and the Ocular-Version 2.0 software package (QImaging).
(§2) For visualizing FtsZ in Gram-negative bacteria using BOFP, E. coli ATCC 25922, K. pneumoniae ATCC 13883, P. aeruginosa ATCC 27853, and A. baumannii ATCC 19606 were grown to log-phase in CAMH broth. For each Gram-negative bacterial strain, a total of 1 mL of cell culture was centrifuged at 15,000×g for 1 minute and washed twice with 1 mL of Tris-buffered saline (TBS) composed of 50 mM Tris-HCl pH 7.6 and 150 mM NaCl. […] The resuspended cells were then incubated in the dark for 5 minutes at room temperature, centrifuged at 15,000×g for 1 minute, washed twice with 1 mL of TBS, and subsequently resuspended in 200 μL of TBS. This final cell suspension was then prepared for microscopy as described above for the Gram-positive bacterial strains.

[2] = tested on: FtsZ in K. pneumoniae ATCC 13883 cells; assay: as above; assay type: cell-based
Protocol: as §1, §2

[3] = tested on: FtsZ in A. baumannii ATCC 19606 cells; assay: as above; assay type: cell-based; conditions: 1 μg/mL BOFP for 5 minutes, no pentamidine
Protocol: as §1, §2

[4] = molecular target: T2, FtsZ in E. coli ATCC 25922 cells (Escherichia coli, UniProt P0A9A6); assay: as above; assay type: cell-based; conditions: 1 μg/mL BOFP for 5 minutes, no pentamidine
T2 construct: endogenous in cells; host or cells: E. coli ATCC 25922
Protocol: as §1, §2

[5] = molecular target: T3, Pseudomonas aeruginosa FtsZ (PaFtsZ) (Pseudomonas aeruginosa, UniProt P47204); assay: Fluorescence anisotropy binding of BOFP to FtsZ; conditions: for Kd: 50 mM Tris-HCl (pH 7.6), 50 mM KCl
T3 sequence (P47204 1-394): T1 sequence (P47204 1-394)
Protocol: (§3) Fluorescence anisotropy assay for determining the affinities and thermodynamics associated with the binding of BOFP to FtsZ proteins. Fluorescence anisotropy experiments were performed using an AVIV model ATF105 spectrofluorometer at 15, 25, or 37° C. In these experiments, bandwidths were set to 4 nm in both the excitation and emission directions, with the excitation and emission wavelengths being set at 488 nm and 510 nm, respectively. BOFP (0.1 μM) was titrated with increasing concentrations (ranging from 0 to 12 μM) of FtsZ in 120 μL of buffer containing 50 mM Tris-HCl (pH 7.6) and 50 mM KCl. After each protein addition, the samples were equilibrated for 3 minutes, whereupon the fluorescence anisotropy was measured.
(§4) [formula] In this equation, r0 is the anisotropy of the protein-free compound, r∞ is the anisotropy of the compound in the presence of an infinite concentration of FtsZ, [C]tot is the total concentration of the compound, and [P]tot is the total concentration of protein with each addition. These analyses yielded the equilibrium dissociation constant (Kd) for each binding reaction.
(§5) The binding free energy (ΔG) at temperature T was derived from the corresponding Kd value determined at T using the following relationship:
(§6) [formula] The binding enthalpy (ΔH) and entropy (ΔS) were derived from linear fits of the ln(1/Kd) vs. 1/T plots shown in FIGS. 3f and 5e using the following relationship:
(§7) A quartz ultra-micro cell (Hellma) with a 2×5 mm aperture and a 15 mm center height was used for all measurements. The pathlengths in the excitation and emissions directions were 1 and 0.2 cm, respectively. All steady-state anisotropy experiments were conducted in at least triplicate, with the reported anisotropies reflecting the average values.

[6] = molecular target: T4, Enterococcus faecium FtsZ (EfmFtsZ) (Enterococcus faecium, UniProt Q3Y2I1); assay: Fluorescence anisotropy binding of BOFP to FtsZ; conditions: for Kd: 50 mM Tris-HCl (pH 7.6), 50 mM KCl
T4 sequence (Q3Y2I1 1-413): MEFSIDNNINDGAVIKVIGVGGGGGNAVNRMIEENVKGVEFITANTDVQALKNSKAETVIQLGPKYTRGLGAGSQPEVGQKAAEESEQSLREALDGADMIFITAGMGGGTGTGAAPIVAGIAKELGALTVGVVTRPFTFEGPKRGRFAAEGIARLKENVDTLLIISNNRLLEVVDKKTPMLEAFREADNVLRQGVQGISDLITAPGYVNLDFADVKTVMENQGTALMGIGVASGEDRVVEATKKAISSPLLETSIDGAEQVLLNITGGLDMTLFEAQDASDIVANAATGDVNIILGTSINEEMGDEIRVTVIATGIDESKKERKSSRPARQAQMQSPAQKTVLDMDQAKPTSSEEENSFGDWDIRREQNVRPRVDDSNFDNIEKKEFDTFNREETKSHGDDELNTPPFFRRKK
Protocol: as §3, §4, §5, §6, §7

[7] = linear fit of ln(1/Kd) vs. 1/T, Eq. 3

T2 sequence (P0A9A6 whole entry): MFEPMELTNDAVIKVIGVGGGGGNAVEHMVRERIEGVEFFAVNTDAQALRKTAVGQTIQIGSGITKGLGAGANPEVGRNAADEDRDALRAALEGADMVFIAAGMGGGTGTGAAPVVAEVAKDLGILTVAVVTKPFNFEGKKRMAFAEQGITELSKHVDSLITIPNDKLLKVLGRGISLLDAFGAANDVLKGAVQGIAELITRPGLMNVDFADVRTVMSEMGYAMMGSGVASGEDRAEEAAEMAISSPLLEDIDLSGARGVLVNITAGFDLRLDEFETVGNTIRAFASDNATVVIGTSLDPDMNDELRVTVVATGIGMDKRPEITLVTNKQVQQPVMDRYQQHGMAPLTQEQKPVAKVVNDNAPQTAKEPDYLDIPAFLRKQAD

Question: Which results are given for `CC1=CC(C)=[N+]2C1=Cc1ccc(CCC(=O)OCC(Oc3ccc(F)c(C(N)=O)c3F)c3nc(-c4ccc(C(F)(F)F)cc4)c(Br)o3)n1[B-]2(F)F` (stereo not drawn) [BOFP, 2-(5-bromo-4-(4-(trifluoromethyl)phenyl)-oxazol-2-yl)-2-(3-carbamoyl-2,4-difluorophenoxy)ethyl 3-(5,5-difluoro-7,9-dimethyl-5H-5λ^4,6λ^4-dipyrrolo[1,2-c:2′,1′-f][1,3,2]diazaborinin-3-yl)propanoate]?
Answer: FtsZ labeling in live cells without pentamidine [1]: little or no FtsZ labeling; FtsZ labeling in live cells without pentamidine ([2]; 1 μg/mL BOFP for 5 minutes, no pentamidine): little or no FtsZ labeling; FtsZ labeling (fluorescence staining) in live cells ([2]; 1 μg/mL BOFP with 3.5 mg/mL pentamidine isethionate, 5 minutes): bright fluorescence staining is visible both at midcell and along the cell periphery; FtsZ labeling in live cells without pentamidine [3]: little or no FtsZ labeling; FtsZ labeling in live cells without pentamidine [4]: little or no FtsZ labeling; ΔH contribution to the observed ΔG of binding [5]: > 50%; Kd ([5]; 15° C., read-out: Kd −15° C.): 230 ± 20 nM; Kd ([5]; 25° C., read-out: Kd −25° C.): 360 ± 60 nM; Kd ([5]; 37° C., read-out: Kd −37° C.): 580 ± 60 nM; ΔG ([5]; T = 310K (37° C.), Eq. 2): -8.8 ± 0.1 kcal/mol; ΔH [5, 7]: -7.7 ± 0.2 kcal/mol; ΔS [5, 7]: +3.8 + 0.6 cal/mol · K; ΔS contribution to the observed ΔG of binding [6]: > 50%; Kd ([6]; 15° C., read-out: Kd −15° C.): 2500 ± 140 nM; Kd ([6]; 25° C., read-out: Kd −25° C.): 2620 ± 80 nM; Kd ([6]; 37° C., read-out: Kd −37° C.): 3140 ± 220 nM; ΔH [6, 7]: -1.9 ± 0.6 kcal/mol; ΔS [6, 7]: +19.2 ± 1.9 cal/mol · K
